From patent US20050131061A1, “Angiogenesis inhibitors” (Mercian Corporation, priority 2002, published 2005)

How the values were obtained:
[1] = test system: human umbilical cord vein endothelial cells; assay: Inhibition of proliferation of human umbilical cord vein endothelial cells (3H-thymidine incorporation); type: cell-based; settings: bFGF 10 μg/l, 48 hours + 8 hours 3H-thymidine
Method: That is, 0.1 ml of human umbilical cord vein endothelial cells (Cell Systems Corporation) adjusted to 2×10^3 cells/well in MCDB131 medium (Chlorella Industry Co., Ltd.) containing 10 μg/l basic fibroblast cell growth factor and 10% fetal calf serum is seeded on a collagen-coated 96-well microplate (Sumitomo Bakelite Co., Ltd.) and at the same time a suitable amount of sample is added. The resultant is cultivated in an atmosphere containing 5% CO2 at 37° C. for 48 hours. Further, 1 μCi/well ^3H-tymidine is added and cultivation is performed for 8 hours. Then, the cells are collected using a cell harvester and the radioactivity incorporated into cells is measured using a scintillation counter.
When the sample contains an active substance for inhibiting the growth of angioendothelial cells, the incorporation of radioactivity into the cells is suppressed. Further, an effective concentration range of the sample is obtained from the change in radioactivity in the cells depending on the concentration of the sample.

DLD-1 (prostate cancer) = assay: Toxicity to cultivated human cancer cells, MTT growth inhibition; type: cell-based; settings: DLD-1 cells, 72 hours
Method: (§1) Note that the tests were performed as follows. Various kinds of human cancer cells (K562 (leukemia), H226 (lung cancer), DLD-1 (prostate cancer) and HT1080 (fibrosarcoma)) were suspended in RPMI1640 medium or DMEM medium containing 10% fetal calf serum and each adjusted to 5×10^3 cells/well, and 0.1 ml of this was seeded on a 96-well microplate. At the same time, a suitable amount of each of the substances F-1491 (substances F-1491A to F-1491H) was added and the resultant was cultivated at 37° C. for 72 hours in an atmosphere containing 5% CO2. Further, 10 μl of 0.5% MTT (3-[4,5-dimethylthiazol-2-yl]2,5-[…] tetrazolium bromide) was added and the resultant was cultivated for 4 hours. After the cultivation, 0.1 ml of 10% SDS-0.01N hydrochloric acid was added and absorbance at 570 nm was measured to determine 50% growth inhibition concentration.

H226 (lung cancer) = assay: as above; type: cell-based; settings: 72 hours
Method: as §1

HT1080 (fibrosarcoma) = assay: as above; type: cell-based; settings: 72 hours
Method: as §1

K562 (leukemia) = assay: as above; type: cell-based; settings: 72 hours
Method: as §1

[2] = Solubility (physicochemical properties)
Method: • (1) Form: white powder • (2) Molecular formula: C24H34O3 • (Measurement of C24H35O3 by high resolution FAB mass spectrometry Calculated m/z: 371.2586 (M+H)^+, Found m/z: 371.2580) • (3) Specific optical rotation: [α]D^26−194° (c 0.1, methanol) • (4) Melting point: 55 to 58° C. • (5) Infrared absorption spectrum: The results obtained by measurement by the KBr method are as shown in FIG. 1. […] The chemical shift, multiplicity and spin coupling constant of each signal are shown in Table 1. • (9) ^13C-NMR spectrum: Measurement was performed by dissolving the substance in heavy methanol and using tetramethylsilane as an internal standard. 2. Physicochemical Properties of the Substance F-1491B • (1) Form: white powder • (2) Molecular formula: C23H32O3 • (Measurement of C23H33O3 by high resolution FAB mass spectrometry Calculated m/z: 357.2430 (M+H)^+, Found m/z: 357.2463), • (3) Specific optical rotation: [α]D^26-222° (c 0.1, methanol) • (4) Melting point: 53 to 56° C. • (5) Infrared absorption spectrum: The results obtained by measurement by the KBr method are as shown in FIG. 2. […] The chemical shift, multiplicity, and spin coupling constant of each signal are shown in Table 1. • (9) ^13C-NMR spectrum: Measurement was performed by dissolving the substance in heavy methanol and using tetramethylsilane as an internal standard. 3. Physicochemical Properties of the Substance F-1491C • (1) Form: white powder • (2) Molecular formula: C24H35O3Cl • (Measurement of C24H35O3Cl by high resolution ESI mass spectrometry Calculated m/z: 429.2172 (M+Na)^+, Found m/z: 429.2204) • (3) Ultraviolet absorption spectrum (measured in methanol): […]

[3] = in methanol, chloroform and dimethyl sulfoxide

Row | Solubility [2, 3] | Solubility ([2]; in water) | Structure (SMILES) | 50% growth inhibition concentration [1] [mg/L] | 50% growth inhibition concentration (DLD-1 (prostate cancer)) [mg/L] | 50% growth inhibition concentration (H226 (lung cancer)) [mg/L] | 50% growth inhibition concentration (HT1080 (fibrosarcoma)) [mg/L] | 50% growth inhibition concentration (K562 (leukemia)) [mg/L]
1 | Soluble | hardly soluble | CC=C(C)C1C(C=CC=C(C)C(=O)CC)C2CC3OC3(C)CC2C2OC21C (centres unmarked) [F-1491A] | 2.2 | >100 | >100 | >100 | 39
2 | Soluble | hardly soluble | CC=C(C)C1C(C=CC=C(C)C(C)=O)C2CC3OC3(C)CC2C2OC21C (centres unmarked) [F-1491B] | 3.4 | >100 | >100 | >100 | 36
3 |  |  | CC=C(C)C1C(C=CC=C(C)C(C)=O)C2CC(O)C(C)(O)CC2C2OC21C (centres unmarked) [F-1491H] | 5.6 | >100 | >100 | >100 | 61
4 |  |  | CC=C(C)C1C(C=CC=C(C)C(C)=O)C2CCC(C)(O)CC2C2OC21C (centres unmarked) [F-1491F] | 9.3 | >100 | >100 | >100 | 72
5 |  |  | CC=C(C)C1C(C=CC=C(C)C(=O)CC)C2CCC(C)(O)CC2C2OC21C (centres unmarked) [F-1491E] | 3.2 | >100 | >100 | >100 | 68
6 |  |  | CC=C(C)C1C(C=CC=C(C)C(C)=O)C2CC(Cl)C(C)(O)CC2C2OC21C (centres unmarked) [F-1491D] | 4.6 | >100 | >100 | >100 | 80
7 |  |  | CC=C(C)C1C(C=CC=C(C)C(C)=O)C2CC(OC)C(C)(O)CC2C2OC21C (centres unmarked) [F-1491G] | 7.7 | >100 | >100 | >100 | 95
8 |  |  | CC=C(C)C1C(C=CC=C(C)C(=O)CC)C2CC(Cl)C(C)(O)CC2C2OC21C (centres unmarked) [F-1491C] | 7.4 | >100 | >100 | >100 | 52
